Source: PubChem BioAssay AID268 (DTP/NCI, 2004)

Tested on: CD2F1 mice, P1798 lymphosarcoma sc, tumor weight T/C
Experiment: NCI In Vivo Anticancer Drug Screen. Data for tumor model P1798 Lymphosarcoma (subcutaneous) in CD2F1 (CDF1) mice
Settings: endpoint: mean tumor weight, higher = larger tumour
Description: The antitumor activity of compounds was measured in mice bearing transplantable tumors. Survival or tumor size were measured and the results are expressed as the measurement made in the treated group (T) divided by the measurement made in the vehicle treated control group (C). The tumor model used in this assay is P1798 Lymphosarcoma (subcutaneous) in CD2F1 (CDF1) mice

Q: How did the T/C (dose: 12.5 mg/kg/injection, schedule: Q01DX005 (sc), vehicle: steriod suspending solution) turn out when `C[C@]12C=CC(=O)C=C1CC[C@H]1[C@@H]3C[C@@H](O)[C@](O)(C(=O)CO)[C@@]3(C)C[C@H](O)[C@@]12F` was run?
A: 16 % of control

Q: And the T/C (dose: 12.5 mg/kg/injection, schedule: Q03DX004 (sc), vehicle: steriod suspending solution)?
A: 26 % of control

Q: And the T/C (dose: 25.0 mg/kg/injection, schedule: Q01DX005 (sc), vehicle: steriod suspending solution)?
A: 2 % of control

Q: What about the T/C (dose: 25.0 mg/kg/injection, schedule: Q02DX010 (sc), vehicle: steriod suspending solution) of the same compound?
A: 115 % of control

Q: And the T/C (dose: 25.0 mg/kg/injection, schedule: Q03DX004 (sc), vehicle: steriod suspending solution)?
A: 6 % of control

Q: What about the T/C (dose: 50.0 mg/kg/injection, schedule: Q01DX005 (sc), vehicle: steriod suspending solution) of the same compound?
A: 2 % of control

Q: And the T/C (dose: 50.0 mg/kg/injection, schedule: Q02DX010 (sc), vehicle: steriod suspending solution)?
A: 122 % of control

Q: And the T/C (dose: 50.0 mg/kg/injection, schedule: Q03DX004 (sc), vehicle: steriod suspending solution)?
A: 5 % of control

Q: For `CC(=O)[C@H]1CC[C@H]2[C@@H]3C[C@H](C)C4=CC(=O)CC[C@]4(C)[C@@]3(F)[C@@H](O)C[C@]12C`, which T/C (dose: 50.0 mg/kg/injection, schedule: Q01DX010 (sc), vehicle: steriod suspending solution) is on record?
A: 11 % of control

Q: What about the T/C (dose: 100.0 mg/kg/injection, schedule: Q01DX010 (sc), vehicle: steriod suspending solution) of the same compound?
A: 4 % of control

Q: What about the T/C (dose: 200.0 mg/kg/injection, schedule: Q01DX010 (sc), vehicle: steriod suspending solution) of the same compound?
A: 2 % of control

Q: And the T/C (dose: 400.0 mg/kg/injection, schedule: Q01DX010 (sc), vehicle: steriod suspending solution)?
A: 2 % of control

Q: What does the source list for `O=C(O)C(=O)O.[U]`?
A: T/C (dose: 1.56 mg/kg/injection, schedule: Q01DX010 (ip), vehicle: saline): 64 % of control; T/C (dose: 3.13 mg/kg/injection, schedule: Q01DX010 (ip), vehicle: saline): 45 % of control; T/C (dose: 6.25 mg/kg/injection, schedule: Q01DX010 (ip), vehicle: saline): 28 % of control; T/C (dose: 12.5 mg/kg/injection, schedule: Q01DX010 (ip), vehicle: saline): 30 % of control
